Experiments:
[1] = tested on: BMP signal in MDA-231-D-BREFluc/Rluc cells; experiment: BMP signal inhibitory effect (AlphaScreen SureFire SMAD1 p-Ser463/465, BMP-6 stimulation); type: cell-based; details: BMP-6 stimulated MDA-231-D-BREFluc/Rluc cells, phospho-SMAD1 AlphaScreen; read-out: IC50
In short: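 MDA-231-D-BREFluc/Rluc cells were pretreated with compound for 2 h at 37° C, then stimulated with BMP-6 for 30 min. SMAD1 p-Ser463/465 in lysates was measured by AlphaScreen SureFire.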

[2] = biological target: human ALK3 (Homo sapiens (Human), UniProt P36894); experiment: ALK3 enzyme inhibitory effect (33P-ATP kinase assay, Reaction Biology); type: biochemical; details: ALK3, test compound 300 nM; read-out: Inhibition rate at 300 nM
Chain of human ALK3 (P36894 24-532): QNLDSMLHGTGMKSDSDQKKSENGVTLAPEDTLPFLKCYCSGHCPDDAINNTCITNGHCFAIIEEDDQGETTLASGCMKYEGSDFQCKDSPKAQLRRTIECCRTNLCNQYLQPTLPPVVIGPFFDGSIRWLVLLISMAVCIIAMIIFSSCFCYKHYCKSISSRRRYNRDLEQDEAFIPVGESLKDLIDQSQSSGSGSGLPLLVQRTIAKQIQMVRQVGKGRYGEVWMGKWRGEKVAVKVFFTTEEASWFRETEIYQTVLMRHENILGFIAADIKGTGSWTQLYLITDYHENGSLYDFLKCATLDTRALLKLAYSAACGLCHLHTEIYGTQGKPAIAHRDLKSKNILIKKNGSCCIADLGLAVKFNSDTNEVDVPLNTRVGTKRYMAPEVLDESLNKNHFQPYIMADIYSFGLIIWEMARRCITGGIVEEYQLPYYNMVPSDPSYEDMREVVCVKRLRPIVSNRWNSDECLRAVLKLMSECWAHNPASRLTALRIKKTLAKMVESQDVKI
Description: (§1) ALK Enzyme Inhibitory Effect
(§2) Evaluation conditions were described in the following web pages. http://www.reactionbiology.corrilwebapps/site/Kinase_Assay_Protocol.aspx http://www.reactionbiology.corrilwebapps/site/KinaseDetail.aspx?page=Kinases&id=1

[3] = biological target: human ALK6 (Homo sapiens (Human), UniProt O00238); experiment: ALK6 enzyme inhibitory effect (33P-ATP kinase assay, Reaction Biology); type: biochemical; details: ALK6, test compound 300 nM; read-out: Inhibition rate at 300 nM
Chain of human ALK6 (O00238 14-502): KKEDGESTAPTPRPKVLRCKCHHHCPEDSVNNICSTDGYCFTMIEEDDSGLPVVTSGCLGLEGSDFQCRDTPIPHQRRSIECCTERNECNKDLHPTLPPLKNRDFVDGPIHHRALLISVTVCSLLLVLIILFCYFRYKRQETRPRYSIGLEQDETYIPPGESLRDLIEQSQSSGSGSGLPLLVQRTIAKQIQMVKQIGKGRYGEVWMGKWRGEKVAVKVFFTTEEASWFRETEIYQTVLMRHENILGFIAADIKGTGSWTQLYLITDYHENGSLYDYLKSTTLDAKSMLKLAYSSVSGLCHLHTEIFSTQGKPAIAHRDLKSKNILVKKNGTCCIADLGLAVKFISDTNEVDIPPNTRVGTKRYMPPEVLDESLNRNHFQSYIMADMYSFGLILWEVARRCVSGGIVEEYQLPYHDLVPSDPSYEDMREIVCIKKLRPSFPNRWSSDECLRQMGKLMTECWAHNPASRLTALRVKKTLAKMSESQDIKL
Description: as §1, §2

[4] = biological target: human ALK2 (Homo sapiens (Human), UniProt Q04771); experiment: ALK2 enzyme inhibitory effect (33P-ATP kinase assay, Reaction Biology); type: biochemical; details: ALK2, 10 μM ATP, 20 μM casein
Chain of human ALK2 (Q04771 21-509): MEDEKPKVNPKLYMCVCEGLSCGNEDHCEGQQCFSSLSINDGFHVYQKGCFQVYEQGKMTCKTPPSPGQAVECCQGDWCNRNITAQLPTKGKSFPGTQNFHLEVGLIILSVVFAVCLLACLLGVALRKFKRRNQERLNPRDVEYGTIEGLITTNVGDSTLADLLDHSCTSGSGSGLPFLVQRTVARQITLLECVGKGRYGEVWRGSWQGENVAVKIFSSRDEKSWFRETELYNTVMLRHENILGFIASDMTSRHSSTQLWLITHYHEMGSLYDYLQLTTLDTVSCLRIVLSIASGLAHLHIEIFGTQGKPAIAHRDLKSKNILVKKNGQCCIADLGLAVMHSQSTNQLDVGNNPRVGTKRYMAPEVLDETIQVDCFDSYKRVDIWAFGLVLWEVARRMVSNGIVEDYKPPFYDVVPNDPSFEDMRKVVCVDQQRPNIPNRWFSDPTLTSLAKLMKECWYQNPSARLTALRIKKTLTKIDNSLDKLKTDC
Description: as §1, §2

Row | IC50 [1] [nM] | inhibition at 0.3 µM [2] [%] | inhibition at 0.3 µM [3] [%] | IC50 [4] [nM] | SMILES
1 | 7.3 | 62.4 | 88.5 | 66 | CCn1cc(-c2ccnc(Nc3ccc(N4CCC(C)(N)CC4)cc3)n2)c(-c2cccnc2)n1 [Example 176, N-(4-(4-amino-4-methylpiperidin-1-yl)phenyl)-4-(1-ethyl-3-(pyridin-3-yl)-1H-pyrazol-4-yl)pyrimidin-2-amine]
2 | 5.7 | 62.4 | 94.3 | 31 | CCn1cc(-c2ccnc(Nc3ccc4c(c3)CN(CCO)CC4)n2)c(-c2cccnc2)n1 [Example 179, 2-(7-((4-(1-ethyl-3-(pyridin-3-yl)-1H-pyrazol-4-yl)pyrimidin-2-yl)amino)-3,4-dihydroisoquinolin-2(1H)-yl)ethan-1-ol]

Reference: patent US10954216B2, “BMP-signal-inhibiting compound” (RIKEN, priority 2016, dated 2021)
